Results published in PubChem BioAssay AID2060605 (Molecular Pharmacology Branch, DTP, NCI, 2025).
Each block holds one compound with its values, some of them ahead of it.

Test system: 947758-054-R-J2-PDC spheroid growth, percent test/control
Assay: Anticancer human tumor 947758-054-R-J2-PDC patient-derived colon adenocarcinoma cell line growth inhibition [CLK]
Conditions: spheroids with HUVEC and MSC; for viability, T/C: stronger effect = lower value
Summary of the method: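 Multi-cell-type spheroids combined patient-derived tumor cells with HUVEC endothelial cells and human mesenchymal stem cells. Paired agents were dosed in half-log steps down from about clinical Cmax, or from 10 microM where Cmax was unknown.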
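Further: spheroids exposed to compounds for one week before readout.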
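Wherever viability, T/C is given: 100% = DMSO vehicle control wells.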

IC50 (compound alone, run of 09/18/2023): 216 nM [middle of 10 runs]
SMILES: CN1CCN(c2cc(C(=O)Nc3cc4cc(-c5cnn(C)c5)ccc4cn3)ccn2)CC1
viability, T/C (compound 0.316 µM): 5.15% [middle of 12 runs]
viability, T/C (compound 1 µM): 0.61% [middle of 11 runs]
viability, T/C (compound 3.16 µM): 0.65% [middle of 10 runs]
viability, T/C (compound 10 µM): 0.36% [middle of 11 runs]

IC50 (curve of first compound, second compound 0.0316 µM): > 10 µM
IC50 (curve of first compound, second compound 0.1 µM): > 10 µM
IC50 (curve of first compound, second compound 0.316 µM): > 10 µM
IC50 (curve of first compound, second compound 1 µM): 3.64 µM
IC50 (curve of first compound, second compound 3.16 µM): < 0.0316 µM
IC50 (curve of first compound, second compound 10 µM): < 0.0316 µM
SMILES: C#Cc1c(F)ccc2cc(O)cc(-c3ncc4c(N5CC6CCC(C5)N6)nc(OCC56CCCN5CC(F)C6)nc4c3F)c12 (configuration not stated) + CNC(=O)c1ccc(Nc2nc(OC3CCCC3)c3c(-c4ccc5nc(C)oc5c4)c[nH]c3n2)c(OC)c1
viability, T/C (second compound 0.0316 µM, first compound 0.0316 µM): 82.3%
viability, T/C (second compound 0.0316 µM, first compound 0.1 µM): 77.8%
viability, T/C (second compound 0.0316 µM, first compound 0.316 µM): 79.1%
viability, T/C (second compound 0.0316 µM, first compound 1 µM): 73.4%
viability, T/C (second compound 0.0316 µM, first compound 3.16 µM): 77%
viability, T/C (second compound 0.0316 µM, first compound 10 µM): 66.8%
viability, T/C (second compound 0.1 µM, first compound 0.0316 µM): 88.6%
viability, T/C (second compound 0.1 µM, first compound 0.1 µM): 92.6%
viability, T/C (second compound 0.1 µM, first compound 0.316 µM): 79%
viability, T/C (second compound 0.1 µM, first compound 1 µM): 91.7%
viability, T/C (second compound 0.1 µM, first compound 3.16 µM): 103%
viability, T/C (second compound 0.1 µM, first compound 10 µM): 79.2%
viability, T/C (second compound 0.316 µM, first compound 0.0316 µM): 64.9%
viability, T/C (second compound 0.316 µM, first compound 0.1 µM): 75.3%
viability, T/C (second compound 0.316 µM, first compound 0.316 µM): 66.6%
viability, T/C (second compound 0.316 µM, first compound 1 µM): 91%
viability, T/C (second compound 0.316 µM, first compound 3.16 µM): 77.4%
viability, T/C (second compound 0.316 µM, first compound 10 µM): 56.4%
viability, T/C (second compound 1 µM, first compound 0.0316 µM): 44.4%
viability, T/C (second compound 1 µM, first compound 0.1 µM): 56.8%
viability, T/C (second compound 1 µM, first compound 0.316 µM): 47.4%
viability, T/C (second compound 1 µM, first compound 1 µM): 53.8%
viability, T/C (second compound 1 µM, first compound 3.16 µM): 55.8%
viability, T/C (second compound 1 µM, first compound 10 µM): 38.1%
viability, T/C (second compound 3.16 µM, first compound 0.0316 µM): 43.2%
viability, T/C (second compound 3.16 µM, first compound 0.1 µM): 35.4%
viability, T/C (second compound 3.16 µM, first compound 0.316 µM): 40.4%
viability, T/C (second compound 3.16 µM, first compound 1 µM): 46.7%
viability, T/C (second compound 3.16 µM, first compound 3.16 µM): 44.4%
viability, T/C (second compound 3.16 µM, first compound 10 µM): 29.5%
viability, T/C (second compound 10 µM, first compound 0.0316 µM): 36%
viability, T/C (second compound 10 µM, first compound 0.1 µM): 24.8%
viability, T/C (second compound 10 µM, first compound 0.316 µM): 30.9%
viability, T/C (second compound 10 µM, first compound 1 µM): 32.2%
viability, T/C (second compound 10 µM, first compound 3.16 µM): 31.7%
viability, T/C (second compound 10 µM, first compound 10 µM): 24.4%
